ChEMBL document CHEMBL1697781, “Assessment of the health effects of chemicals in humans: II. Construction of an adverse effects database for QSAR modeling” (Curr Drug Discov Technol, 2004)

Legend:
Settings in all cases: human; call rule not given here
[1] = test system: Hepatotoxicity; assay: FDA HLAED, liver enzyme composite activity
[2] = test system: Hepatotoxicity; assay: FDA HLAED, alkaline phosphatase increase
[3] = test system: Hepatotoxicity; assay: FDA HLAED, serum glutamic oxaloacetic transaminase (SGOT) increase
[4] = test system: Hepatotoxicity; assay: FDA HLAED, serum glutamic pyruvic transaminase (SGPT) increase
[5] = test system: Hepatotoxicity; assay: FDA HLAED, lactate dehydrogenase (LDH) increase
[6] = test system: Hepatotoxicity; assay: FDA HLAED, gamma-glutamyl transferase (GGT) increase
Throughout, for GGT Increase - Index Value: reference of the scale not given here.
Throughout, for LDH Increase - Index Value: reference of the scale not given here.

Row | SMILES | Composite Activity - Active [1] | Composite Activity - Marginal [1] | Composite Activity - Score [1] | Alkaline Phosphatase Increase - Activity Score [2] | Alkaline Phosphatase Increase - Index Value [2] | Alkaline Phosphatase Increase - Number of Reports [2] | SGOT Increase - Activity Score [3] | SGOT Increase - Index Value [3] | SGOT Increase - Number of Reports [3] | SGPT Increase - Activity Score [4] | SGPT Increase - Index Value [4] | SGPT Increase - Number of Reports [4] | LDH Increase - Activity Score [5] | LDH Increase - Index Value [5] | LDH Increase - Number of Reports [5] | GGT Increase - Activity Score [6] | GGT Increase - Index Value [6] | GGT Increase - Number of Reports [6] | other results
1 | Cc1cccc(C)c1NC(=O)C(C)N (stereo unspecified) [TOCAINIDE] | 0 | 1 | Inactive | Inactive | 1.7 | >= 4 | Marginally Active | 3.5 | >= 4 | Inactive | 2.2 | >= 4 | Inactive | 1.7 | >= 4 | Inactive | 0 | < 4 | –
2 | CC1(C)O[C@@H]2[C@@H](CO[C@@]3(COS(N)(=O)=O)OC(C)(C)O[C@@H]23)O1 [TOPIRAMATE] | 0 | 0 | Inactive | Inactive | 3.5 | < 4 | Inactive | 0 | < 4 | Inactive | 0 | < 4 | Inactive | 0 | < 4 | Inactive | 0 | < 4 | –
3 | CC[C@@]1(O)C(=O)OCc2c1cc1n(c2=O)Cc2cc3c(CN(C)C)c(O)ccc3nc2-1 [TOPOTECAN] | 0 | 0 | Inactive | Inactive | 0 | < 4 | Inactive | 0 | < 4 | Inactive | 0 | < 4 | Inactive | 11.6 | < 4 | Inactive | 11.6 | < 4 | –
4 | Cc1cccc(Nc2ccncc2S(=O)(=O)NC(=O)NC(C)C)c1 [TORSEMIDE] | 0 | 0 | Inactive | Inactive | 0 | < 4 | Inactive | 0.5 | < 4 | Inactive | 0.5 | < 4 | Inactive | 0 | < 4 | Inactive | 0 | < 4 | –
5 | COc1cccc(C2(O)CCCCC2CN(C)C)c1 (stereo unspecified) [TRAMADOL] | 0 | 0 | Inactive | Inactive | 0.1 | < 4 | Inactive | 0.5 | >= 4 | Inactive | 0.8 | >= 4 | Inactive | 0.6 | >= 4 | Inactive | 0.2 | < 4 | –
6 | CCOC(=O)[C@H](CCc1ccccc1)N[C@@H](C)C(=O)N1[C@H](C(=O)O)C[C@H]2CCCC[C@@H]21 [TRANDOLAPRIL] | 1 | 0 | Inactive | Inactive | 0 | < 4 | Inactive | 7 | < 4 | Marginally Active | 10.5 | < 4 | Inactive | 0 | < 4 | Inactive | 0 | < 4 | –
7 | O=c1n(CCCN2CCN(c3cccc(Cl)c3)CC2)nc2ccccn12 [TRAZODONE] | 0 | 0 | Inactive | Inactive | 0.2 | < 4 | Inactive | 0.3 | < 4 | Inactive | 0 | < 4 | Inactive | 0.3 | < 4 | Inactive | 0 | < 4 | –
8 | CC1=C(/C=C/C(C)=C/C=C/C(C)=C/C(=O)O)C(C)(C)CCC1 [TRETINOIN] | 0 | 0 | Inactive | Inactive | 1 | < 4 | Inactive | 0 | < 4 | Inactive | 0 | < 4 | Inactive | 1 | < 4 | Inactive | 1 | < 4 | –
9 | Cc1nnc2n1-c1ccc(Cl)cc1C(c1ccccc1Cl)=NC2 [TRIAZOLAM] | 0 | 0 | Inactive | Inactive | 0.4 | < 4 | Inactive | 0.3 | < 4 | Inactive | 0 | < 4 | Inactive | 0 | < 4 | Inactive | 0 | < 4 | –
10 | NCCNCCNCCN [TRIENTINE] | – | – | – | Inactive | 0 | < 4 | Inactive | 69.4 | < 4 | Inactive | 69.4 | < 4 | Inactive | 0 | < 4 | Inactive | 0 | < 4 | Composite Activity - Active ([1]; Liver): 0; Composite Activity - Marginal ([1]; Liver): 0; Composite Activity - Score ([1]; Liver): Inactive
11 | O=c1[nH]c(=O)n([C@H]2C[C@H](O)[C@@H](CO)O2)cc1C(F)(F)F [TRIFLURIDINE] | 0 | 0 | Inactive | Inactive | 0 | < 4 | Inactive | 0 | < 4 | Inactive | 0 | < 4 | Inactive | 0 | < 4 | Inactive | 0 | < 4 | –
12 | CN1C(=O)OC(C)(C)C1=O [TRIMETHADIONE] | 2 | 3 | Active | Active | No Shipping Units | >= 4 | Active | No Shipping Units | >= 4 | Marginally Active | No Shipping Units | >= 4 | Marginally Active | No Shipping Units | >= 4 | Marginally Active | No Shipping Units | >= 4 | –
